Assay results from PubChem BioAssay (NCI).
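Grown in 96-well plates, cells were treated for 48 hours with each compound at five concentrations. Insufficient inhibition: endpoint recorded as highest concentration tested. The concentration for 50% growth inhibition is given as GI50. The concentration for full growth arrest is given as TGI.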

Key:
Test in all cases: DTP human tumour cell line panel, 48 h
[1] = test system: HL-60(TB) leukemia
[2] = test system: MOLT-4 leukemia
[3] = test system: OVCAR-8 ovarian
[4] = test system: OVCAR-5 ovarian
[5] = test system: SNB-19 CNS
[6] = test system: SK-OV-3 ovarian
[7] = test system: 786-0 renal
[8] = test system: NCI-H522 lung
[9] = test system: HOP-92 NSCLC
[10] = test system: COLO 205 colon
[11] = test system: RPMI-8226 leukemia
[12] = test system: HCT-116 colon
[13] = test system: UACC-62 melanoma
[14] = test system: SF-268 CNS
[15] = test system: U251 CNS
[16] = test system: CAKI-1 renal
[17] = test system: A549 NSCLC
[18] = test system: HCT-15 colon
[19] = test system: MCF7 breast
[20] = test system: MDA-MB-435
[21] = test system: SF-539 CNS
[22] = test system: ACHN renal
[23] = test system: NCI-H23 lung
[24] = test system: K-562 leukemia
[25] = test system: MALME-3M melanoma
[26] = test system: SW-620 colon
[27] = test system: KM12 colon
[28] = test system: UACC-257 melanoma
[29] = test system: NCI-H460 lung
[30] = test system: CCRF-CEM leukemia
[31] = test system: DU-145 prostate
[32] = test system: EKVX NSCLC
[33] = test system: SNB-75 CNS
[34] = test system: HCC-2998 colon
[35] = test system: UO-31 renal
[36] = test system: MDA-MB-231 breast
[37] = test system: HS 578T breast
[38] = test system: OVCAR-4 ovarian
[39] = test system: T-47D breast
[40] = test system: TK-10 renal
[41] = test system: SK-MEL-2 melanoma
[42] = test system: SN12C renal
[43] = test system: SK-MEL-28 melanoma
[44] = test system: LOX IMVI melanoma
[45] = test system: HOP-62 NSCLC
[46] = test system: IGROV1 ovarian
[47] = test system: BT-549 breast
[48] = test system: M14 melanoma
[49] = test system: RXF 393 renal
[50] = test system: PC-3 prostate
[51] = test system: NCI-H226 lung
[52] = test system: SK-MEL-5 melanoma
[53] = test system: NCI/ADR-RES ovarian
[54] = test system: OVCAR-3 ovarian
[55] = test system: A498 renal
[56] = test system: HT29 colon

## O=C(N/N=C/c1cccc(O)c1)c1ccc(C(F)(F)F)nc1Nc1cccc(C(F)(F)F)c1
[1]
  GI50: 1560 nM
  TGI: 3450 nM
[2]
  GI50: 430 nM
  TGI: 2090 nM
[3]
  GI50: 2120 nM
  TGI: 11300 nM
[4]
  GI50: 1630 nM
  TGI: 5670 nM
[5]
  GI50: 2510 nM
  TGI: 12000 nM
[6]
  GI50: 1770 nM
  TGI: 6020 nM
[7]
  GI50: 1920 nM
  TGI: 5170 nM
[8]
  GI50: 1670 nM
  TGI: 6720 nM
[9]
  GI50: 1290 nM
  TGI: 4560 nM
[10]
  GI50: 1440 nM
  TGI: 2940 nM
[11]
  GI50: 1320 nM
  TGI: 3990 nM
[12]
  GI50: 1930 nM
  TGI: 5690 nM
[13]
  GI50: 1810 nM
  TGI: 4120 nM
[14]
  GI50: 1040 nM
  TGI: 6130 nM
[15]
  GI50: 1740 nM
  TGI: 6650 nM
[16]
  GI50: 1170 nM
  TGI: 3000 nM
[17]
  GI50: 2430 nM
  TGI: 7840 nM
[18]
  GI50: 881 nM
  TGI: 10100 nM
[19]
  GI50: 1370 nM
  TGI: 4080 nM
[20]
  GI50: 1650 nM
  TGI: 4230 nM
[21]
  GI50: 1780 nM
  TGI: 4030 nM
[22]
  GI50: 2090 nM
  TGI: 6350 nM
[23]
  GI50: 1620 nM
  TGI: 5070 nM
[24]
  GI50: 1190 nM
  TGI: 2690 nM
[25]
  GI50: 1360 nM
  TGI: 3830 nM
[26]
  GI50: 1630 nM
  TGI: 5770 nM
[27]
  GI50: 1690 nM
  TGI: 5220 nM
[28]
  GI50: 2360 nM
  TGI: 8440 nM
[29]
  GI50: 1740 nM
  TGI: 4520 nM
[30]
  GI50: 258 nM
  TGI: 1080 nM
[31]
  GI50: 1820 nM
  TGI: 10700 nM
[32]
  GI50: 1010 nM
  TGI: 3370 nM
[33]
  GI50: 1580 nM
  TGI: 6030 nM
[34]
  GI50: 1020 nM
  TGI: 3420 nM
[35]
  GI50: 1590 nM
  TGI: 5080 nM
[36]
  GI50: 1080 nM
  TGI: 3020 nM
[37]
  GI50: 1860 nM
  TGI: 5860 nM
[38]
  GI50: 955 nM
  TGI: 22800 nM
[39]
  GI50: 1540 nM
  TGI: 7080 nM
[40]
  GI50: 1440 nM
  TGI: 4640 nM
[41]
  GI50: 1760 nM
  TGI: 6070 nM
[42]
  GI50: 1790 nM
  TGI: 6340 nM
[43]
  GI50: 1890 nM
  TGI: 10100 nM
[44]
  GI50: 1170 nM
  TGI: 3170 nM
[45]
  GI50: 2350 nM
  TGI: 6950 nM
[46]
  GI50: 2650 nM
  TGI: 11600 nM
[47]
  GI50: 760 nM
  TGI: 3410 nM
[48]
  GI50: 1890 nM
  TGI: 5020 nM
[49]
  GI50: 1130 nM
  TGI: 8850 nM
[50]
  GI50: 1660 nM
  TGI: 7670 nM
[51]
  GI50: 1280 nM
  TGI: 3510 nM
[52]
  GI50: 1210 nM
  TGI: 2440 nM
[53]
  GI50: 2040 nM
  TGI: 5930 nM
[54]
  GI50: 1030 nM
  TGI: 4790 nM
[55]
  GI50: 1590 nM
  TGI: 5650 nM
[56]
  GI50: 3470 nM
  TGI: 11200 nM
